The source of these data is patent publication US4168379A, “Pyridin-3-ols” (BASF Aktiengesellschaft, priority 1977, dated 1979).

The nature of one data set: in vivo. Type of data set: in vivo, rats (Sprague Dawley strain). Particulars: rat, in vivo; oral, rats; dose at which Δ% was determined; read-out: Maximum action: Dose (highest non-toxic dose). On the procedure:
(§1) To determine the anti-arrhythmic activity, the drugs were administered orally to rats (Sprague Dawley strain, weight […]) 45 minutes before the start of the narcosis.
(§2) The animals were narcotized with thiobutabartital (100 mg/kg administered intraperitoneally). The arrhythmogenic substance used was aconitine, which was administered by intravenous infusion (at a rate of 0.005 mg/kg. min) 60 minutes after administration of the test substance. In the case of untreated animals (N=30), arrhythmias occurred after an average of 3.7±0.9 minutes, the commencement of which can be delayed by anti-arrhythmic agents, the delay depending on the dosage.
(§3) For a quantitative evaluation of the linear relation between log dose (mg/kg) of the test substances and the relative prolongation of the duration of aconitine infusion (Δ%), the dose which extended the duration of infusion by 50% (ED 50) was determined. The prior art anti-arrhythmic agent quinidine served as a comparative substance.

For data set [1], the system named is Aconitine-induced arrhythmia. The experiment in a line: animal or person. Type of data set: in vivo, rats (Sprague Dawley strain). Particulars: for ED50: Rattus norvegicus, po, 1 h, read-out: ED 50: dose, administered orally, which prolongs the duration of aconitine infusion by 50%; for antiarrhythmic action (in words): as such and/or as acid addition salts. How it is done: as §1, §2, §3

Data set [2] is described as follows: acute toxicity (LD 50, Probit analysis, death within 24 hours). Particulars: mouse, in vivo; for LD50 at 24 h: ip, intraperitoneal, female Swiss mice; for selectivity ratio: footnote 7 formula given as drawing 13, values correspond to LD 50 (mice, i.p.) / ED 50 (rats, oral), read-out: Therapeutic range. On the procedure:
The acute toxicity was determined on groups of 10 or 20 female Swiss mice, weighing 20-26 g, the compounds being administered intraperitoneally.

As for `CN(C)CCCOc1c(Cc2ccccc2)nc(Cc2ccccc2)c2c1COC2` [III, 4,6-dibenzyl-1,3-dihydrofuro[3,4-c]pyridin-7-yl 3-dimethylaminopropyl ether], the MTD in “in vivo” stood at 215 mg/kg. In data set [1], the ED50 was 14.9 mg/kg and the “antiarrhythmic action (in words)” value is “have an antiarrhythmic action”. For the same compound, in data set [2], the LD50 – broadly, the dose at which mortality reaches 50% – at 24 h is 98.3 mg/kg and the selectivity ratio came out at 6.6.
On to `C=C[C@H]1C[N@@]2CC[C@H]1C[C@@H]2[C@@H](O)c1ccnc2ccc(OC)cc12` [Quinidine, quinidine, reference compound], for which the ED50 in data set [1] came to 42.3 mg/kg. The LD50 at 24 h in data set [2] was 180 mg/kg.
Turning to `CCN(CC)CCC(C)CCOc1c(C)nc(Cc2ccccc2)c2c1COC2` (centres unmarked) [VII, 4-benzyl-6-methyl-1,3-dihydro-furo[3,4-c]pyridin-7-yl 5-diethylamino-(3-methylpentyl) ether], the MTD in the data set “in vivo” came to 100 mg/kg. Also, in data set [1], the ED50 was 11.3 mg/kg and the “antiarrhythmic action (in words)” value is “have an antiarrhythmic action”. In addition, in data set [2], the LD50 at 24 h was determined as 88.9 mg/kg and the selectivity ratio worked out at 7.86.
The like results for `Cc1nc(Cc2ccccc2)c2c(c1OCCCNC(C)C)COC2` [Example IV, 4-benzyl-6-methyl-1,3-dihydro-furo[3,4-c]pyridin-7-yl 3-isopropylamino-propyl ether] were, in that order, 215 mg/kg, 28.9 mg/kg, “have an antiarrhythmic action”, 139 mg/kg and 4.81.
As to `Cc1nc(Cc2ccccc2)c2c(c1OCCC(C)CCNC(C)C)COC2` (centres unmarked) [VI, 4-benzyl-6-methyl-1,3-dihydrofuro[3,4-c]pyridin-7-yl 5-isopropylamino-(3-methylpentyl) ether], in the data set “in vivo”, the MTD is 100 mg/kg. In data set [1], the ED50 stood at 12.2 mg/kg and the “antiarrhythmic action (in words)” value is “have an antiarrhythmic action”. Further, in data set [2], the LD50 at 24 h is 82.2 mg/kg and the selectivity ratio came out at 6.74.
The like results for `Cc1nc(Cc2ccccc2)c2c(c1OCCCCNC(C)C)COC2` [V, 4-benzyl-6-methyl-1,3-dihydro-furo[3,4-c]pyridin-7-yl 4-isopropylaminobutyl ether] were, in that order, 100 mg/kg, 5.66 mg/kg, “have an antiarrhythmic action”, 99.3 mg/kg and 17.5.
`Cc1nc(Cc2ccccc2)c2c(c1OCCCCNC(C)(C)C)COC2` [VIII, 4-benzyl-6-methyl-1,3-dihydrofuro[3,4-c]pyridin-7-yl 4-tert.-butylamino-butyl ether]: the MTD in “in vivo” was found to be 46.4 mg/kg. Also, in data set [1], the ED50 worked out at 9.29 mg/kg and the “antiarrhythmic action (in words)” value was “have an antiarrhythmic action”. In data set [2], the LD50 at 24 h came to 73.9 mg/kg and the selectivity ratio amounted to 7.95.
